According to article PMC5068727, “Low-dose oxytocin delivered intranasally with Breath Powered device affects social-cognitive behavior: a randomized four-way crossover trial with nasal cavity dimension assessment” (Translational Psychiatry, 2015):

Experiments:
Format in all cases: in vivo, human
[1] = Open label pilot study of peripheral OT pharmacokinetics; conditions: 5 participants, 1IU IV in 200ml 0.9% NaCl, 600ml/hour over 20 minutes, 30 to 60 minutes post-administration
Method: An open label pilot study comparing the pharmacokinetics of 24IU OPN-OT and 1IU IV-OT was conducted with 5 eligible participants (4 of these participants participated in the main study) to ensure that 1IU IV-OT would equal or exceed the serum exposure following IN-OT treatment. The IV OT (1IU) was mixed in 200ml 0.9% NaCl and administered at an infusion rate of 600ml/hour over 20 minutes. Blood was sampled just before administration (baseline) and at seven timepoints after completion of administration (10, 20, 30, 45, 60, 90, and 120 minutes). […] There was a one-month washout period, at the minimum, between participation in the pilot study and the experimental phase.

[2] = test system: healthy male adults; experiment: Social cognition task: emotional and trustworthiness ratings of facial images; conditions: 1 IU IV over 20 min, estimated mean (SE), linear mixed model, SEM
Method: Participants completed the social cognition task 40 min after treatment in a magnetic resonance imaging scanner while functional magnetic resonance imaging and physiology data were recorded (results to be reported separately). Participants were presented with visual stimuli through magnetic resonance imaging-compatible goggles (VisualSystem; NordicNeuroLab, Bergen, Norway) using E-Prime 2.0 (Psychology Software Tools, PA, USA) and responded using a grip response collection system (ResponseGrip, NordicNeuroLab).
For the primary emotional expression evaluation outcome measure, participants were presented with 20 male and 20 female faces (as used previously[55]) displaying angry, happy and emotionally ambiguous facial expressions (derived from the Karolinska Directed Emotional Faces database[56]) and 20 images of geometrical shapes (data not presented). Following each presentation, participants were asked either: How angry is this person? (anchors: not angry—very angry) or How happy is this person? (anchors: not happy—very happy). Q2 was always the same: How much would you trust this person? (anchors: not at all—very much). Participants were asked to rank their answer on a visual analog scale from 1 to 5, with location of the cursor on the visual analog scale randomized for each question. Mean ratings for each of the questions were averaged per session within each of the emotional categories, yielding seven behavioral variables (Q1: Happy face—happy, Happy face—angry, ambiguous face—happy, ambiguous face—angry, angry face—happy, angry face—angry; Q2: Trust). These stimuli and questions were chosen to assess three levels of emotion perception; ambiguous, non-ambiguous with corresponding cues and ratings (for example, angry ratings of angry faces) and non-ambiguous with conflicting cues and ratings (for example, angry ratings of happy faces).
(§1) Analysis was conducted using IBM SPSS Statistics version 22 (IBM, Armonk, NY, USA) to explore pharmacokinetics and examine the impact of treatment on outcome measures. A linear mixed-model (LMM) approach was adopted[58] for the analysis of emotional expression evaluation, pharmacokinetics, state anxiety and trustworthiness. In contrast to a repeated-measures analysis of variance approach, LMM allows for the inclusion of participants in the analysis even if data are missing for some of the treatment conditions. All the models were fitted using an unstructured matrix. For any significant main effects (that is, P<0.05), post hoc tests were performed with the adjustment of critical P-values to correct for multiple comparisons using a 5% false discovery rate.[59] Experimental treatment was both a fixed and repeated effect in the LMM testing the impact of treatment on emotion and trustworthiness ratings. To investigate the impact of treatment on anxiety and blood plasma concentration of OT, AVP and cortisol, an LMM was fitted with three fixed factors (treatment, time, treatment × time) and one repeated factor (treatment).

[3] = test system: cortisol; experiment: Cortisol blood plasma concentration (ELISA); conditions: 1 IU IV, LMM pairwise comparison
Method: (§2) Blood samples were collected to assess peripheral levels of OT, AVP and cortisol at baseline and five time points after the completion of the 20-min IV administration (0, 10, 30, 60 and 120 mins) throughout the session. Up to two punctures with catheter placement were made to collect these blood samples, which were centrifuged at 4 °C within 5 min of blood draw with plasma frozen at −80 °C. Enzyme-linked immunosorbent assay using commercial kits (Enzo Life Sciences, Farmingdale, NY, USA) was performed using standard techniques (including sample extraction[57]).
as §1

[4] = test system: healthy male adults; experiment: Self-reported adverse events; conditions: 1 IU IV; 16 healthy males, single dose
Method: At various points (−20, 0, 10, 30, 60 and 120 mins relative to start of functional magnetic resonance imaging) throughout testing, participants reported the presence and severity of any adverse effects.

[5] = Oxytocin blood plasma concentration (ELISA); conditions: 1 IU IV over 20 min
Method: as §2
as §1, with “Experimental treatment was both a fixed and repeated effect in the LMM testing the impact of treatment on emotion and trustworthiness ratings. To investigate the impact of treatment on anxiety and blood plasma concentration of OT, AVP and cortisol, an LMM was fitted with three fixed factors (treatment, time, treatment × time) and one repeated factor (treatment).” left out

With `CC[C@H](C)[C@@H]1NC(=O)[C@H](Cc2ccc(O)cc2)NC(=O)[C@@H](N)CSSC[C@@H](C(=O)N2CCC[C@H]2C(=O)N[C@@H](CC(C)C)C(=O)NCC(N)=O)NC(=O)[C@H](CC(N)=O)NC(=O)[C@H](CCC(N)=O)NC1=O` [IV OT, oxytocin] the “Peripheral (serum) OT levels relative to 24IU OPN-OT” value [1] was “reasonably approximated the levels achieved after 24IU OPN-OT administration”, the “Angry ratings of ambiguous faces” value ([2]; single dose, task 40 min after treatment, visual analog scale 1 to 5, 16 healthy males) was 2.32 (0.18) and the Trustworthiness ([2]; collapsed across emotional categories, scale 1 to 5) was 3.16 (0.05). For the same molecule, the “Angry ratings of angry faces” value ([2]; scale 1 to 5) was 3.68 (0.2), the “Angry ratings of happy faces” value ([2]; scale 1 to 5) was 1.24 (0.02) and the “Happy ratings of ambiguous faces” value ([2]; scale 1 to 5) was 2.38 (0.14). The “Happy ratings of happy faces” value ([2]; scale 1 to 5) was 4.31 (0.13), the “Cortisol blood plasma concentration compared with 8 IU OPN-OT” value [3] was “but not 8 IU OPN-OT” and the “Cortisol blood plasma concentration compared with 24 IU OPN-OT” value ([3]; P<0.001) was “significantly increased”. The “Cortisol blood plasma concentration compared with placebo” value ([3]; P=0.01) was “significantly increased”, the “Adverse events (for example, brief dizziness)” value [4] was “three” and the “Plasma OT concentration compared with placebo” value ([5]; baseline and 0, 10, 30, 60, 120 min, ELISA with extraction, LMM pairwise comparison, P<0.001) was “significantly increased”. The “Plasma OT concentration, simple effect for time” value ([5]; shortly after IV administration compared with all other time points, all P<0.001) was “significantly higher concentrations shortly after IV administration”.
